Legend:
[1] = tested on: FSCCL^R clone 3 (PI3KCA P539R); test: CellTiter Glo viability assay after 96 h; format: cell-based; conditions: single agent, read-out: EC50
Description: (§1) Idelalisib resistance was established by continuous passaging of a clonal isolate of WSU-FSCCL in the presence of 1 μM idelalisib; clonal isolates from a passage-matched line (FSCCL^S) and idelalisib-resistant line (FSCCL^R) were generated through 2 rounds of single-cell-limiting dilution. Growth inhibition to idelalisib or other inhibitors was performed after 96 h using CellTiter Glo viability assay. Characterization of mutations and gene expression were identified by whole exome sequencing and RNA-Seq, respectively. Whole cell lysates were analyzed by western blots.

[2] = tested on: FSCCL^R clone 1 (PI3KCA E970K); test: CellTiter Glo viability assay after 96 h; format: cell-based; conditions: single agent, read-out: EC50
Description: as §1

FSCCL^R = test: CellTiter Glo viability assay after 96 h; format: cell-based; conditions: FIG. 16, read-out: EC50, cell viability
Description: as §1

FSCCL (WSU-FSCCL) = test: CellTiter Glo viability assay after 96 h; format: cell-based; conditions: read-out: EC50, cell viability
Description: as §1

[3] = cited from earlier work
parental TMD-8 = test: 96-hour Cell Titer Glo viability assay, parental line; parameters: Emax: dose or concentration left out as unconfirmed; conditions: Homo sapiens
TMD8^R cells = test: Apoptosis, Annexin V assay and propidium iodide by flow cytometry; format: cell-based; conditions: Annexin V at 48 h, Idelalisib=1 μM
Description: Growth inhibition to Idelalisib or other inhibitors was assessed using CellTiter-Glo viability assay at 96 h. […] Cell lines were analyzed by whole exome sequencing, RNASeq, and phosphoproteomics. Protein expression was measured using Simple Western and SDS/PAGE and western blot. Caspase 3/7 was measured using Caspase-Glo 3/7 assay; apoptosis was measured with Annexin V assay and propidium iodide by flow cytometry.

With `CCC(Nc1ncnc2[nH]cnc12)c1nc2cccc(F)c2c(=O)n1-c1ccccc1` (stereo not shown) [Idelalisib, 2-(1-((9H-Purin-6-yl)amino)propyl)-5-fluoro-3-phenylquinazolin-4(3H)-one] as the compound, how does the EC50 [1] read?
The EC50 was greater than 3000 nM.

What about the EC50 [2] of the same compound?
The EC50 was greater than 3000 nM.

And the EC50 (FSCCL^R)?
The EC50 was greater than 10000 nM.

And the EC50 (FSCCL (WSU-FSCCL))?
The EC50 was 140 nM.

And the “clinical Cmin” value [3]?
Its value is 103 nM.

What about the Cmax ([3]; clinical) of the same compound?
Its Cmax is 591 nM.

What about the EC50 (parental TMD-8; TMD8, read-out: EC50, cell viability) of the same compound?
Its EC50 is 54 nM.

What about the Emax (parental TMD-8; TMD8, read-out: Emax, growth inhibition) of the same compound?
The Emax was 86%.

What about the apoptosis (TMD8^R cells; GSK-2334470=1 μM, vehicle control 22%) of the same compound?
Its apoptosis is 24%.

And the apoptosis (TMD8^R cells; MK-2206=1 μM, vehicle control 24%)?
Its apoptosis is 21%.

Reference: patent publication US20180353512A1, “COMBINATION THERAPIES FOR TREATING B-CELL MALIGNANCIES” (GILEAD SCIENCES, INC., priority 2015, published 2018)
